Test results as given in PubChem BioAssay AID1963870 (Molecular Pharmacology Branch, DTP, NCI, 2024).

System: 292921-168-R-J2-PDC KRAS tumor spheroid viability
Test: Anticancer human tumor 292921-168-R-J2-PDC patient-derived pancreatic carcinoma cell line growth inhibition [KRAS2]
Settings: spheroids with HUVEC and MSC; for IC50: curve of first compound; for viability, T/C: stronger effect = lower value
In short: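 KRAS-mutant tumor cells were grown as spheroids with HUVEC endothelial cells and human MSCs as stroma. Targeted agents were tested alone and with KRAS pathway inhibitors. Doses started at or near clinical Cmax, or 10 microM, descending half-log.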

[1] = second compound 0.1 µM, first compound 0.000316 µM
[2] = second compound 0.1 µM, first compound 0.001 µM
[3] = second compound 0.1 µM, first compound 0.00316 µM
[4] = second compound 0.1 µM, first compound 0.01 µM
[5] = second compound 0.1 µM, first compound 0.0316 µM
[6] = second compound 0.316 µM, first compound 0.000316 µM
[7] = second compound 0.316 µM, first compound 0.001 µM
[8] = second compound 0.316 µM, first compound 0.00316 µM
[9] = second compound 0.316 µM, first compound 0.01 µM
[10] = second compound 0.316 µM, first compound 0.0316 µM
[11] = second compound 1 µM, first compound 0.000316 µM
[12] = second compound 1 µM, first compound 0.001 µM
[13] = second compound 1 µM, first compound 0.00316 µM
[14] = second compound 1 µM, first compound 0.01 µM
[15] = second compound 1 µM, first compound 0.0316 µM
[16] = second compound 3.16 µM, first compound 0.000316 µM
[17] = second compound 3.16 µM, first compound 0.001 µM
[18] = second compound 3.16 µM, first compound 0.00316 µM
[19] = second compound 3.16 µM, first compound 0.01 µM
[20] = second compound 3.16 µM, first compound 0.0316 µM
[21] = second compound 10 µM, first compound 0.000316 µM
[22] = second compound 10 µM, first compound 0.001 µM
[23] = second compound 10 µM, first compound 0.00316 µM
[24] = second compound 10 µM, first compound 0.01 µM
[25] = second compound 10 µM, first compound 0.0316 µM
[26] = second compound 0.1 µM, first compound 0.1 µM
[27] = second compound 0.316 µM, first compound 0.1 µM
[28] = second compound 1 µM, first compound 0.1 µM
[29] = second compound 3.16 µM, first compound 0.1 µM
[30] = second compound 10 µM, first compound 0.1 µM
[31] = second compound 0.1 µM, first compound 0.316 µM
[32] = second compound 0.1 µM, first compound 1 µM
[33] = second compound 0.1 µM, first compound 3.16 µM
[34] = second compound 0.1 µM, first compound 10 µM
[35] = second compound 0.316 µM, first compound 0.316 µM
[36] = second compound 0.316 µM, first compound 1 µM
[37] = second compound 0.316 µM, first compound 3.16 µM
[38] = second compound 0.316 µM, first compound 10 µM
[39] = second compound 1 µM, first compound 0.316 µM
[40] = second compound 1 µM, first compound 1 µM
[41] = second compound 1 µM, first compound 3.16 µM
[42] = second compound 1 µM, first compound 10 µM
[43] = second compound 3.16 µM, first compound 0.316 µM
[44] = second compound 3.16 µM, first compound 1 µM
[45] = second compound 3.16 µM, first compound 3.16 µM
[46] = second compound 3.16 µM, first compound 10 µM
[47] = second compound 10 µM, first compound 0.316 µM
[48] = second compound 10 µM, first compound 1 µM
[49] = second compound 10 µM, first compound 3.16 µM
[50] = second compound 10 µM, first compound 10 µM
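Further: drug exposure lasted seven days after spheroids formed for three days.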
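Wherever viability, T/C is given: percent of DMSO vehicle control viability which is 100%.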

`CC(=O)Nc1cccc(-n2c(=O)n(C3CC3)c(=O)c3c(Nc4ccc(I)cc4F)n(C)c(=O)c(C)c32)c1` + CNCc1ccccc1-c1csc(C(C)Nc2nc(C)nc3cc(OC)c(OC)cc23)c1 was tested, and the IC50 (second compound 0.1 µM) was 0.207 nM, the IC50 (second compound 0.316 µM) was 0.178 nM and the IC50 (second compound 1 µM) was 0.124 nM. It also gave an IC50 (second compound 3.16 µM) of less than 0.1 nM, an IC50 (second compound 10 µM) of less than 0.1 nM and a viability, T/C (second compound 0.1 µM, first compound 0.0001 µM) of 66%. It also gave a viability, T/C [1] of 41.9%, a viability, T/C [2] of 20.2% and a viability, T/C [3] of 17.5%. It also gave a viability, T/C [4] of 12%, a viability, T/C [5] of 8.12% and a viability, T/C (second compound 0.316 µM, first compound 0.0001 µM) of 64.5%. It also gave a viability, T/C [6] of 35.3%, a viability, T/C [7] of 21.8% and a viability, T/C [8] of 16.3%. It also gave a viability, T/C [9] of 12.3%, a viability, T/C [10] of 8.64% and a viability, T/C (second compound 1 µM, first compound 0.0001 µM) of 55%. For the same molecule, the viability, T/C [11] was 28.2%, the viability, T/C [12] was 17.9% and the viability, T/C [13] was 13.7%. The viability, T/C [14] was 10.4%, the viability, T/C [15] was 8.11% and the viability, T/C (second compound 3.16 µM, first compound 0.0001 µM) was 0.21%. For the same molecule, the viability, T/C [16] was 0.07%, the viability, T/C [17] was 0.05% and the viability, T/C [18] was 0.04%. For the same molecule, the viability, T/C [19] was 0.04%, the viability, T/C [20] was 0.15% and the viability, T/C (second compound 10 µM, first compound 0.0001 µM) was 0.11%. The viability, T/C [21] was 0.11%, the viability, T/C [22] was 0.11% and the viability, T/C [23] was 0.12%. For the same molecule, the viability, T/C [24] was 0.12% and the viability, T/C [25] was 0.2%.

In the case of `CC(C)n1nc(-c2ccc3oc(N)nc3c2)c2c(N)ncnc21` + CNCc1ccccc1-c1csc(C(C)Nc2nc(C)nc3cc(OC)c(OC)cc23)c1, the IC50 (second compound 0.1 µM) is reported as 3.06 nM, the IC50 (second compound 0.316 µM) is reported as 2.08 nM and the IC50 (second compound 1 µM) is reported as 0.991 nM. The IC50 (second compound 3.16 µM) was less than 0.316 nM, the IC50 (second compound 10 µM) was less than 0.316 nM and the viability, T/C [1] was 76.3%. The viability, T/C [2] was 63.9%, the viability, T/C [3] was 50.2% and the viability, T/C [4] was 36.2%. The viability, T/C [5] was 25.3%, the viability, T/C [26] was 23.7% and the viability, T/C [6] was 79%. It also gave a viability, T/C [7] of 60.7%, a viability, T/C [8] of 43.3% and a viability, T/C [9] of 33.5%. For the same molecule, the viability, T/C [10] was 24.5%, the viability, T/C [27] was 21.5% and the viability, T/C [11] was 74.4%. It also gave a viability, T/C [12] of 50%, a viability, T/C [13] of 33.6% and a viability, T/C [14] of 25.7%. The viability, T/C [15] was 22.7%, the viability, T/C [28] was 19% and the viability, T/C [16] was 1.37%. It also gave a viability, T/C [17] of 0.62%, a viability, T/C [18] of 0.91% and a viability, T/C [19] of 0.17%. The viability, T/C [20] was 0.67%, the viability, T/C [29] was 0.43% and the viability, T/C [21] was 0.08%. It also gave a viability, T/C [22] of 0.56%, a viability, T/C [23] of 0.08% and a viability, T/C [24] of 0.09%. For the same molecule, the viability, T/C [25] was 0.85% and the viability, T/C [30] was 0.31%.

`COC(=O)c1ccc2c(C(=Nc3ccc(N(C)C(=O)CN4CCN(C)CC4)cc3)c3ccccc3)c(O)[nH]c2c1` + CNCc1ccccc1-c1csc(C(C)Nc2nc(C)nc3cc(OC)c(OC)cc23)c1 was tested, and the IC50 (second compound 0.1 µM) was 538 nM, the IC50 (second compound 0.316 µM) was 516 nM and the IC50 (second compound 1 µM) was 407 nM. The IC50 (second compound 3.16 µM) was less than 31.6 nM, the IC50 (second compound 10 µM) was less than 31.6 nM and the viability, T/C [5] was 101%. It also gave a viability, T/C [26] of 92.9%, a viability, T/C [31] of 64.5% and a viability, T/C [32] of 31.9%. It also gave a viability, T/C [33] of 10.4%, a viability, T/C [34] of 0.5% and a viability, T/C [10] of 90.5%. The viability, T/C [27] was 88.1%, the viability, T/C [35] was 64.2% and the viability, T/C [36] was 28.8%. For the same molecule, the viability, T/C [37] was 13.5%, the viability, T/C [38] was 0.68% and the viability, T/C [15] was 106%. It also gave a viability, T/C [28] of 88.3%, a viability, T/C [39] of 52.5% and a viability, T/C [40] of 32.1%. It also gave a viability, T/C [41] of 4.65%, a viability, T/C [42] of 0.52% and a viability, T/C [20] of 0.14%. The viability, T/C [29] was 0.23%, the viability, T/C [43] was 0.19% and the viability, T/C [44] was 0.33%. For the same molecule, the viability, T/C [45] was 0.3%, the viability, T/C [46] was 0.68% and the viability, T/C [25] was 0.2%. For the same molecule, the viability, T/C [30] was 0.22%, the viability, T/C [47] was 0.19% and the viability, T/C [48] was 0.16%. It also gave a viability, T/C [49] of 0.13% and a viability, T/C [50] of 0.35%.

In the case of `COc1cc(Nc2ncc3c(n2)-c2ccc(Cl)cc2C(c2c(F)cccc2OC)=NC3)ccc1C(=O)O` + CNCc1ccccc1-c1csc(C(C)Nc2nc(C)nc3cc(OC)c(OC)cc23)c1, the IC50 (second compound 0.1 µM) is reported as less than 31.6 nM, the IC50 (second compound 0.316 µM) is reported as less than 31.6 nM and the IC50 (second compound 1 µM) is reported as less than 31.6 nM. It also gave an IC50 (second compound 3.16 µM) of less than 31.6 nM, an IC50 (second compound 10 µM) of less than 31.6 nM and a viability, T/C [5] of 27.9%. For the same molecule, the viability, T/C [26] was 24.7%, the viability, T/C [31] was 28.1% and the viability, T/C [32] was 25.4%. It also gave a viability, T/C [33] of 22.3%, a viability, T/C [34] of 16.5% and a viability, T/C [10] of 25.8%. It also gave a viability, T/C [27] of 22%, a viability, T/C [35] of 25.9% and a viability, T/C [36] of 23.9%. It also gave a viability, T/C [37] of 21.1%, a viability, T/C [38] of 14.9% and a viability, T/C [15] of 20.6%. It also gave a viability, T/C [28] of 19.1%, a viability, T/C [39] of 23.1% and a viability, T/C [40] of 19.4%. The viability, T/C [41] was 17.6%, the viability, T/C [42] was 13.4% and the viability, T/C [20] was 0.07%. It also gave a viability, T/C [29] of 0.05%, a viability, T/C [43] of 0.04% and a viability, T/C [44] of 0.05%. The viability, T/C [45] was 0.08%, the viability, T/C [46] was 0.19% and the viability, T/C [25] was 0.11%. For the same molecule, the viability, T/C [30] was 0.1%, the viability, T/C [47] was 0.13% and the viability, T/C [48] was 0.1%. It also gave a viability, T/C [49] of 0.09% and a viability, T/C [50] of 0.15%.

In the case of `COc1cc2nccc(Oc3ccc(NC(=O)C4(C(=O)Nc5ccc(F)cc5)CC4)cc3)c2cc1OC` + CNCc1ccccc1-c1csc(C(C)Nc2nc(C)nc3cc(OC)c(OC)cc23)c1, the IC50 (second compound 0.1 µM) is reported as 1270 nM, the IC50 (second compound 0.316 µM) is reported as 1050 nM and the IC50 (second compound 1 µM) is reported as 401 nM. It also gave an IC50 (second compound 3.16 µM) of less than 31.6 nM, an IC50 (second compound 10 µM) of less than 31.6 nM and a viability, T/C [5] of 89.2%. It also gave a viability, T/C [26] of 94.5%, a viability, T/C [31] of 82.5% and a viability, T/C [32] of 57.1%. For the same molecule, the viability, T/C [33] was 25.1%, the viability, T/C [34] was 18.1% and the viability, T/C [10] was 89.4%. For the same molecule, the viability, T/C [27] was 90.8%, the viability, T/C [35] was 73.4% and the viability, T/C [36] was 55.3%. The viability, T/C [37] was 19.8%, the viability, T/C [38] was 17% and the viability, T/C [15] was 69.1%. It also gave a viability, T/C [28] of 65.5%, a viability, T/C [39] of 50.1% and a viability, T/C [40] of 40.2%. The viability, T/C [41] was 15.1%, the viability, T/C [42] was 3.12% and the viability, T/C [20] was 0.1%. For the same molecule, the viability, T/C [29] was 0.09%, the viability, T/C [43] was 0.13% and the viability, T/C [44] was 0.06%. It also gave a viability, T/C [45] of 0.05%, a viability, T/C [46] of 0.1% and a viability, T/C [25] of 0.08%. It also gave a viability, T/C [30] of 0.13%, a viability, T/C [47] of 0.21% and a viability, T/C [48] of 0.08%. The viability, T/C [49] was 0.42% and the viability, T/C [50] was 0.25%.
